Data as given in publication PMC7397336, “5-(4H)-Oxazolones and Their Benzamides as Potential Bioactive Small Molecules” (Molecules, 2020).
“And” between values parts separate entries of the source, which are not always exact repeats. Equal values may be shown once. Marks after values point to notes of the source that are not given here.

What was measured:
[1] = tested on: acetic acid induced writhing; assay: Anti-nociception, acetic acid writhing test; type: in vivo, Fisher 344 rats; details: 0.0057 mmol/kg body weight i.p., 0.6% acetic acid
Source text: The animals (Fisher 344 rats), which have been bred in our laboratory, were housed under standard conditions and received a diet of commercial food pellets and water ad libitum during the maintenance but they were entirely fasted during the experiment period. Both sexes were used while females pregnant were excluded. Each group was composed of 6–15 animals. Our studies were in accordance with recognized guidelines on animal experimentation (guidelines for the care and use of laboratory animals published by the Greek Government 160/1991, based on EU regulations 86/609). Rats were kept in the Centre of the School of Veterinary Medicine (EL54 BIO42), Aristotle University of Thessaloniki, which is registered by the official state veterinary authorities (presidential degree 56/2013, in harmonization with the European Directive 2010/63/EEC). The experimental protocols were approved by the Animal Ethics Committee of the Prefecture of Central Macedonia (no. 270079/2500). In order to study the analgesic activity of the tested compound, pain is provoked with acetic acid. Three groups for each compound were used with five animals per group. We followed our previous presented method. After treatment with the tested compounds (0.0057 mmol/kg body weight; intraperitoneally) in group 1, 2nd group was used as a positive control (aspirin; 0.0057 mmol/kg body weight i.p.) and another group (3rd) served as the control in which saline was administered (negative control). After 30 min, 0.6% acetic acid (1 mL/kg body weight) was injected i.p. The number of writhes was recorded for each animal every 5 min during a subsequent 30 min period.

soybean lipoxygenase = target: T1, soybean lipoxygenase (Glycine max, UniProt P08170); assay: Soybean lipoxygenase inhibition study; type: biochemical; details: for inhibition at 100 µM: read-out: LOX % inhibition 100 μM; for IC50: soybean lipoxygenase, sodium linoleate 0.1 mM, read-out: LOX IC50
T1 construct: purchased Sigma Chemical, Co. (St. Louis, MO, USA)
T1 sequence (P08170 1-839): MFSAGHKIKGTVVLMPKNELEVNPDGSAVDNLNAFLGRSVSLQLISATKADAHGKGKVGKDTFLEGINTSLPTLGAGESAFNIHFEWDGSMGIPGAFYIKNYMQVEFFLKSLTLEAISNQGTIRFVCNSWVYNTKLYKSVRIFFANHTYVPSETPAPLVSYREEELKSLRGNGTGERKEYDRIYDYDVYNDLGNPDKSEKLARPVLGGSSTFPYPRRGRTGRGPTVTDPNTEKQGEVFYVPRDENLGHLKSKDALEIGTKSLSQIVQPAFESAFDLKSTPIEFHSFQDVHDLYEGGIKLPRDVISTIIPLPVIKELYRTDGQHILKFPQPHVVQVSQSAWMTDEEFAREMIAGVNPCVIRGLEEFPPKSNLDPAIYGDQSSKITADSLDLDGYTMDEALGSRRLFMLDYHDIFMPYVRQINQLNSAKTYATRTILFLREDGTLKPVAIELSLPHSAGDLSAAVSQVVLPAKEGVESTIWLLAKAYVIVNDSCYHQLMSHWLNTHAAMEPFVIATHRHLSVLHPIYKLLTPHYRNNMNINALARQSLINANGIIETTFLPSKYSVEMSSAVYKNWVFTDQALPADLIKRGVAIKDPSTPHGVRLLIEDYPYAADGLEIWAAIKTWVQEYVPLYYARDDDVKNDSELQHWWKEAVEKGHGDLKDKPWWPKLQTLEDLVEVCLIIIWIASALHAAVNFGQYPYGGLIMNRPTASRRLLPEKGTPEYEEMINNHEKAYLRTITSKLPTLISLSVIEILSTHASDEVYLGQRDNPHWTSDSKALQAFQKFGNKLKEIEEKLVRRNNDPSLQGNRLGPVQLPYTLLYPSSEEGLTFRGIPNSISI
Procedure: For the in vitro assays, a stock solution (1% DMSO in the appropriate buffer with the tested compound diluted under sonification) was prepared from which several dilutions were made with the appropriate buffer. DMSO solution of the tested compound (stock solutions 10 mM) was incubated with sodium linoleate (0.1 mM) and 0.2 mL of soybean lipoxygenase solution (1/9 × 10^−4 w/v in saline) at room temperature. The test follows our previous published methods. […] Several concentrations were used to determine the IC50.

trypsin = target: T2, trypsin (Bos taurus, UniProt P00760); assay: Inhibition of trypsin induced proteolysis; type: biochemical
T2 sequence (P00760 24-246): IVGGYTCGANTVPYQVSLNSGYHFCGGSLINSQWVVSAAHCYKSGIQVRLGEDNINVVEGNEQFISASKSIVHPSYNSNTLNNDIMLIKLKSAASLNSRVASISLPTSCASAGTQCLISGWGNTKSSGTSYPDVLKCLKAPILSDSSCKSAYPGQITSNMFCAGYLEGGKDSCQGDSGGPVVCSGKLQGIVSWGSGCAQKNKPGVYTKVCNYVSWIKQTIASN
Procedure: (§1) Each in vitro experiment was performed at least in triplicate and the standard deviation of absorbance was less than 10% of the mean. For the in vitro assays, a stock solution (1% DMSO in the appropriate buffer with the tested compound diluted under sonification) was prepared from which several dilutions were made with the appropriate buffer.
The tested compounds (10 µL) were dissolved in DMSO (final concentration 100 µM), with phosphate buffer (pH = 7.6) to give 0.005–0.1 mM solutions, and 100 µL trypsin (1 mg/10 mL) were preincubated at 37 °C for 30 min. Then, 200 µL of albumin (6 mg in 3 mL of distilled water) was added and incubated again at 37 °C for 24 h. After the incubation 1 mL trichloroacetic acid (5% w/w) was added to terminate the reaction. The mixture is centrifugated, the water layer is collected and monitored at 280 nm.

[2] = Inhibition of linoleic acid lipid peroxidation (AAPH)
Source text: Azo compounds, like AAPH, generating free radicals through spontaneous thermal decomposition are useful for in vitro studies of free radical production. Production of conjugated diene hydroperoxide by oxidation of sodium linoleate in an aqueous solution is monitored at 234 nm. This assay can be used to follow oxidative changes and to understand the contribution of each tested compound. […] It seems that the presence of moiety Ar (Scheme 1) is mainly correlated with the antioxidant result. The nature of the heteroatom O/S in Ar substituent in the 5-membered oxazolone ring (compounds 2c and 2e) influences the biological response. The replacement of the thienyl group in 2c by a furyl group (2e) leads to a 31% decrease of the antioxidant ability.
as §1
The AAPH-induced oxidation of linoleic acid measures the ability of an antioxidant to prevent oxidation of linoleic acid sodium salt induced by alkylperoxyl radicals, generated from the water soluble azo compound 2,2′-azobis(2-amidinopropane) dihydrochloride (AAPH). The assay was performed according to our previous publications. Trolox was used as reference compound.

mushroom tyrosinase = mushroom tyrosinase (Agaricus bisporus, UniProt C7FF04); assay: Tyrosinase inhibition assay; type: biochemical; details: L-Dopa substrate, read-out: ΤyrI% 100 μM (inhibition of mushroom tyrosinase)
mushroom tyrosinase, sequence (G1K3P4 entry or part of it): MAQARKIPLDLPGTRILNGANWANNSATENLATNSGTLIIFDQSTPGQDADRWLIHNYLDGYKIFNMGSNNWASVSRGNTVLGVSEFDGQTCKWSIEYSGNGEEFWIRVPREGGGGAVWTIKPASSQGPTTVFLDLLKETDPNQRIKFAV
mushroom tyrosinase, sequence (C7FF04 1-392): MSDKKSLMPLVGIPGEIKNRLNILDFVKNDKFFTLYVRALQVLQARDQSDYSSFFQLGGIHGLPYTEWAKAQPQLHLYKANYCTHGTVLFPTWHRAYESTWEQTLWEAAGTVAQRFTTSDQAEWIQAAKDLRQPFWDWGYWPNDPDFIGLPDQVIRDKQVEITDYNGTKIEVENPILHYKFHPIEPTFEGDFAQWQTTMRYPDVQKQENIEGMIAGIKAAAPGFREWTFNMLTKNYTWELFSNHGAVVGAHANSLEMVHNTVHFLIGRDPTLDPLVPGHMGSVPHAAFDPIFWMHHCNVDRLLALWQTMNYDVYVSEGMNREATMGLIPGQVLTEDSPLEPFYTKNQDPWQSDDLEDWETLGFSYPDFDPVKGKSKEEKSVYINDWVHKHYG
Procedure: For the in vitro assays, a stock solution (1% DMSO in the appropriate buffer with the tested compound diluted under sonification) was prepared from which several dilutions were made with the appropriate buffer.

[3] = tested on: carrageenin-induced rat paw edema; assay: Inhibition of the carrageenin-induced rat paw edema; type: in vivo, Fisher 344 rats; details: 0.0057 mmol/kg body weight i.p., 3.5 h after carrageenin
Procedure: For the estimation of anti-inflammatory potential of the tested compounds the rat carrageenin induced paw edema assay was employed as a model for acute inflammation. Indomethacin, as a reference drug, and our compounds were administered intraperitoneally in order to ensure systemic response via fast bioavailability, while carrageenin’s intradermal administration, as inflammatory agent, aimed to local response. The development of the edema induced by carrageenin has been described as a biphasic event. The early phase of the inflammatory response, lasting 0.5–1.5 h, is chiefly mediated by histamine and serotonin release inducing hyperalgesia, swelling and redness, while the later phase, lasting 3–6 h, is sustained presumably by prostaglandin release. This model reliably predicts the anti-inflammatory efficacy of the NSAIDs during the second phase, since non-steroidal anti-inflammatory drugs (NSAIDs) present weak activity in the first phase. Therefore, using this protocol we could evaluate our compounds as potential anti-inflammatory agents, as a result of inhibition of prostaglandin amplification.
The animals (Fisher 344 rats), which have been bred in our laboratory, were housed under standard conditions and received a diet of commercial food pellets and water ad libitum during the maintenance but they were entirely fasted during the experiment period. Both sexes were used while females pregnant were excluded. Each group was composed of 6–15 animals. Our studies were in accordance with recognized guidelines on animal experimentation (guidelines for the care and use of laboratory animals published by the Greek Government 160/1991, based on EU regulations 86/609). […]
Edema was induced in the right hind paw of the rats by the intradermal injection of 0.1 mL 2% carrageenin in water we followed our previous published method. […] The change in paw weight was compared with that in control animals (treated with water) and expressed as a percent inhibition of the edema CPE % values. […]

SMILES	Writhing Inhibition (%) [1]	melting point	inhibition at 100 µM (soybean lipoxygenase)	IC50 (soybean lipoxygenase)	Iptr% 10 µM (% trypsin inhibition) (trypsin)	AAPH% 100 µM (anti-lipid peroxidation) [2]	inhibition at 100 µM (mushroom tyrosinase)	CPE (%) inhibition of carrageenin-induced rat paw edema [3]
CC(=O)Oc1ccccc1C(=O)O [Aspirin, aspirin, reference compound]	77%	–	–	–	–	–	–	–
O=C(N/C(=C\c1ccccc1)C(=O)N1CCOCC1)c1ccccc1 [Compound 3a, (Z)-N-(3-morpholino-3-oxo-1-phenylprop-1-en-2-yl)benzamide]	–	135 to 138 °C	< 50%	100 µM	no	69%	–	–
O=C(N/C(=C\c1ccccc1)C(=O)N1CCN(C(=O)/C(=C/c2ccccc2)NC(=O)c2ccccc2)CC1)c1ccccc1 [Compound 4a, N,N′-((1Z,1′Z)-piperazine-1,4-diylbis(3-oxo-1-phenylprop-1-ene-3,2-diyl))bisbenzamide]	32%	265 to 268 °C	36%	–	–	82%	33%	44 * % and 44%
O=C(N/C(=C\c1cccs1)C(=O)N1CCN(C(=O)/C(=C/c2cccs2)NC(=O)c2ccccc2)CC1)c1ccccc1 [Compound 4c, N,N′-((1Z,1′Z)-piperazine-1,4-diylbis(3-oxo-1-(thiophen-2-yl)prop-1-ene-3,2-diyl))bisbenzamide]	58%	292 to 294 °C	–	41 µM	–	93%	42%	56 ** % and 56%
